In ChEMBL document CHEMBL3228046, “A structural modification study of procarbazine” (1979):
Active and inactive are the calls of the source. The calls are words filed in the database; no cut-off is given here.

How the values were obtained:
KB = assay: Antineoplastic activity against human KB cells; assay type: functional, cell-based
L1210 [1] = assay: Antineoplastic activity against mouse L1210 cells allografted in BDF1 mouse administered qd for 1 to 9 days starting 24 hrs after tumor cell implantation; assay type: functional, cell-based
P388 [2] = assay: Antineoplastic activity against mouse P388 cells allografted in BDF1 mouse administered qd for 1 to 9 days starting 24 hrs after tumor cell implantation; assay type: functional, cell-based
P388 [3] = assay: Antineoplastic activity against mouse P388 cells allografted in BDF1 mouse at 800 mg/kg administered qd for 1 to 9 days starting 24 hrs after tumor cell implantation relative to control; assay type: functional
L1210 [4] = assay: Antineoplastic activity against mouse L1210 cells allografted in BDF1 mouse at 50 mg/kg administered qd for 1 to 9 days starting 24 hrs after tumor cell implantation relative to control; assay type: functional

With `CNNCc1c[nH]c(=O)[nH]c1=O` the Activity (KB) was “inactive”, the Activity (L1210 [1]) was “inactive” and the Activity (P388 [2]) was “inactive”.

In the case of `CNC(=O)NCc1ccc(C(=O)NC(C)C)cc1`, the Activity (KB) is reported as “inactive”, the Activity (L1210 [1]) is reported as “inactive” and the Activity (P388 [2]) is reported as “inactive”.

`CC(C)NC(=O)c1ccc(C/[N+]([O-])=C/c2ccccc2)cc1` gave a T/C (P388 [3]) of 153.

With `CC(C)NC(=O)c1ccc(CON(C)C(=O)OCc2ccccc2)cc1` the Activity (KB) was “inactive”, the Activity (L1210 [1]) was “inactive” and the Activity (P388 [2]) was “inactive”.

`CNNCc1ccc(/C=N/NC(N)=S)cc1` was tested, and the Activity (KB) was “inactive”, the Activity (L1210 [1]) was “inactive” and the Activity (P388 [2]) was “inactive”.

`CO/[N+](=C\c1ccccc1)Cc1ccc(C(=O)NC(C)C)cc1` was tested, and the Activity (KB) was “inactive”, the Activity (L1210 [1]) was “inactive” and the Activity (P388 [2]) was “inactive”.

For `CC(C)NC(=O)c1ccc(CBr)cc1`, the Activity (KB) was “Active”.

For `CONCc1ccc(C(=O)NC(C)C)cc1`, the Activity (KB) was “inactive”, the Activity (L1210 [1]) was “inactive” and the Activity (P388 [2]) was “inactive”.

In the case of `CC(C)NC(=O)c1ccc(CONC(=O)OCc2ccccc2)cc1`, the Activity (KB) is reported as “inactive”, the Activity (L1210 [1]) is reported as “inactive” and the Activity (P388 [2]) is reported as “inactive”.

With `CNC(=S)Nc1ccc(C(=O)NC(C)C)cc1` the Activity (KB) was “inactive”, the Activity (L1210 [1]) was “inactive” and the Activity (P388 [2]) was “inactive”.

In the case of `CNC(=S)NCc1ccc(C(=O)NC(C)C)cc1`, the Activity (KB) is reported as “inactive”, the Activity (L1210 [1]) is reported as “inactive” and the Activity (P388 [2]) is reported as “inactive”.

In the case of `CNC(=O)Nc1ccc(C(=O)NC(C)C)cc1`, the T/C (L1210 [4]) is reported as 132.

With `CNOCc1ccc(C(=O)NC(C)C)cc1` the Activity (KB) was “inactive”, the Activity (L1210 [1]) was “inactive” and the Activity (P388 [2]) was “inactive”.
